{"source": "patent US20150313904A1", "about": "(Teva Pharmaceuticals Ltd., priority 2014, published 2015)", "origin": "cited, not measured here", "system": "Crohn's disease patients", "conditions": "azathioprine-treated patients; Summers et al. 1979", "data": [{"molecule": "Cn1cnc([N+](=O)[O-])c1Sc1ncnc2nc[nH]c12", "note": "[azathioprine]", "values": [{"measurement": "time of maximum decrease in the mean CDAI score", "value": 9, "unit": "weeks"}]}]}
